Source: patent US20230355626A1, “INHIBITORS OF HUMAN IMMUNODEFICIENCY VIRUS REPLICATION” (VIIV HEALTHCARE UK (NO.5) LIMITED, priority 2020, published 2023)

Tests used:
[1] = Compound cytotoxicity, XTT-based colorimetric assay; type: cell-based; conditions: human; uninfected MT2 cells, day 4, XTT assay
Procedure: Compound cytotoxicity and the corresponding CC50 values were determined using the same protocol as described in the antiviral assay except that uninfected cells were used. Cytotoxicity was assessed on day 4 in uninfected MT2 cells by using an XTT (2,3-bis[2-Methoxy-4-nitro-5-sulfophenyl]-2H-tetrazolium-5-carboxyanilide inner salt)-based colorimetric assay (Sigma-Aldrich, St Louis, Mo).

recombinant NL4-3 virus = assay: HIV cell culture assay (antiviral activity, luciferase readout in infected MT-2 cells); type: cell-based; conditions: Human immunodeficiency virus 1, NL43, MT2
Procedure: HIV cell culture assay—MT-2 cells, 293T cells and the proviral DNA clone of NL4-3 virus were obtained from the NIH AIDS Research and Reference Reagent Program. MT-2 cells were propagated in RPMI 1640 media supplemented with 10% heat inactivated fetal bovine serum (FBS), 100 μg/ml penicillin G and up to 100 units/mL streptomycin. The 293T cells were propagated in DMEM media supplemented with 10% heat inactivated FBS, 100 μg/mL penicillin G and 100 μg/mL streptomycin. A recombinant NL4-3 proviral clone, in which a section of the nef gene was replaced with the Renilla luciferase gene, was used to make the reference virus used in these studies. The recombinant virus was prepared through transfection of the recombinant NL4-3 proviral clone into 293T cells using Transit-293 Transfection Reagent from Mirus Bio LLC (Madison, WI). Supernatant was harvested after 2-3 days and the amount of virus present was titered in MT-2 cells using luciferase enzyme activity as a marker by measuring luciferase enzyme activity. Luciferase was quantitated using the EnduRen Live Cell Substrate from Promega (Madison, WI). Antiviral activities of compounds toward the recombinant virus were quantified by measuring luciferase activity in MT-2 cells infected for 4-5 days with the recombinant virus in the presence of serial dilutions of the compound.
The 50% effective concentration (EC50) was calculated by using the exponential form of the median effect equation where (Fa)=1/[1+(ED50/drug conc.)m] (Johnson VA, Byington RT. Infectivity Assay. In Techniques in HIV Research. ed. Aldovini A, Walker BD. 71-76. New York: Stockton Press.1990). Curve fitting and analysis were performed with ActivityBase XE Runner software version 9.1.0.4 using model 203 (ID Business Solutions, LTD, Guildford, UK).

Cn1nc(NS(C)(=O)=O)c2c(Cl)ccc(-n3c([C@H](Cc4cc(F)cc(F)c4)NC(=O)Cn4nc(C(F)F)c5c4C(F)(F)[C@@H]4C[C@H]54)nc4nc(OCCC(F)(F)C(F)(F)F)ccc4c3=O)c21 (atropisomer, axis not shown; (P)) [Example 19, N-((S)-1-((3P)-3-(4-chloro-1-methyl-3-(methylsulfonamido)-1H-indazol-7-yl)-4-oxo-7-(3,3,4,4,4-pentafluorobutoxy)-3,4-dihydropyrido[2,3-d]pyrimidin-2-yl)-2-(3,5-difluorophenyl)ethyl)-2-((3bS,4aR)-3-(difluoromethyl)-5,5-difluoro-3b,4,4a,5-tetrahydro-1H-cyclopropa[3,4]cyclopenta[1,2-c]pyrazol-1-yl)acetamide]
CC50 at 4 day [1]: > 100 nM | EC50 (recombinant NL4-3 virus): 0.044 nM

Cc1cnc(COc2ccc3c(=O)n(-c4ccc(Cl)c5c(NS(C)(=O)=O)nn(C)c45)c([C@H](Cc4cc(F)cc(F)c4)NC(=O)Cn4nc(C(F)F)c5c4C(F)(F)[C@@H]4C[C@H]54)nc3n2)nc1 (atropisomer, axis not shown; (P)) [Example 8, N-((S)-1-((3P,3P)-3-(4-chloro-1-methyl-3-(methylsulfonamido)-1H-indazol-7-yl)-7-((5-methylpyrimidin-2-yl)methoxy)-4-oxo-3,4-dihydropyrido[2,3-d]pyrimidin-2-yl)-2-(3,5-difluorophenyl)ethyl)-2-((3bS,4aR)-3-(difluoromethyl)-5,5-difluoro-3b,4,4a,5-tetrahydro-1H-cyclopropa[3,4]cyclopenta[1,2-c]pyrazol-1-yl)acetamide]
CC50 at 4 day [1]: > 100 nM | EC50 (recombinant NL4-3 virus): 0.049 nM

Cc1ccnc(COc2ccc3c(=O)n(-c4ccc(Cl)c5c(NS(C)(=O)=O)nn(C)c45)c([C@H](Cc4cc(F)cc(F)c4)NC(=O)Cn4nc(C(F)F)c5c4C(F)(F)[C@@H]4C[C@H]54)nc3n2)n1 (atropisomer, axis not shown; (P)) [Example 7, N-((S)-1-((3P,3P)-3-(4-chloro-1-methyl-3-(methylsulfonamido)-1H-indazol-7-yl)-7-((4-methylpyrimidin-2-yl)methoxy)-4-oxo-3,4-dihydropyrido[2,3-d]pyrimidin-2-yl)-2-(3,5-difluorophenyl)ethyl)-2-((3bS,4aR)-3-(difluoromethyl)-5,5-difluoro-3b,4,4a,5-tetrahydro-1H-cyclopropa[3,4]cyclopenta[1,2-c]pyrazol-1-yl)acetamide]
CC50 at 4 day [1]: > 500 nM | EC50 (recombinant NL4-3 virus): 0.059 nM

Cn1nc(NS(C)(=O)=O)c2c(Cl)ccc(-n3c([C@H](Cc4cc(F)cc(F)c4)NC(=O)Cn4nc(C(F)F)c5c4C(F)(F)[C@@H]4C[C@H]54)nc4nc(OCCC(C)(C)c5ccccc5)ccc4c3=O)c21 (atropisomer, axis not shown; (P)) [Example 5, N-((S)-1-((3P)-3-(4-chloro-1-methyl-3-(methylsulfonamido)-1H-indazol-7-yl)-7-(3-methyl-3-phenylbutoxy)-4-oxo-3,4-dihydropyrido[2,3-d]pyrimidin-2-yl)-2-(3,5-difluorophenyl)ethyl)-2-((3bS,4aR)-3-(difluoromethyl)-5,5-difluoro-3b,4,4a,5-tetrahydro-1H-cyclopropa[3,4]cyclopenta[1,2-c]pyrazol-1-yl)acetamide]
CC50 at 4 day [1]: > 100 nM | EC50 (recombinant NL4-3 virus): 0.43 nM

Cn1nccc1CCOc1ccc2c(=O)n(-c3ccc(Cl)c4c(NS(C)(=O)=O)nn(C)c34)c([C@H](Cc3cc(F)cc(F)c3)NC(=O)Cn3nc(C(F)F)c4c3C(F)(F)[C@@H]3C[C@H]43)nc2n1 (atropisomer, axis not shown; (P)) [Example 14, N-((R)-1-((3P,3P)-3-(4-chloro-1-methyl-3-(methylsulfonamido)-1H-indazol-7-yl)-7-(2-(1-methyl-1H-pyrazol-5-yl)ethoxy)-4-oxo-3,4-dihydropyrido[2,3-d]pyrimidin-2-yl)-2-(3,5-difluorophenyl)ethyl)-2-((3bS,4aR)-3-(difluoromethyl)-5,5-difluoro-3b,4,4a,5-tetrahydro-1H-cyclopropa[3,4]cyclopenta[1,2-c]pyrazol-1-yl)acetamide]
CC50 at 4 day [1]: > 500 nM | EC50 (recombinant NL4-3 virus): 0.061 nM

Cn1nc(NS(C)(=O)=O)c2c(Cl)ccc(-n3c([C@H](Cc4cc(F)cc(F)c4)NC(=O)Cn4nc(C(F)F)c5c4C(F)(F)[C@@H]4C[C@H]54)nc4nc(OCCC(C)(C)C(F)(F)F)ccc4c3=O)c21 (atropisomer, axis not shown; (P)) [Example 4, N-((S)-1-((3P)-3-(4-chloro-1-methyl-3-(methylsulfonamido)-1H-indazol-7-yl)-4-oxo-7-(4,4,4-trifluoro-3,3-dimethylbutoxy)-3,4-dihydropyrido[2,3-d]pyrimidin-2-yl)-2-(3,5-difluorophenyl)ethyl)-2-((3bS,4aR)-3-(difluoromethyl)-5,5-difluoro-3b,4,4a,5-tetrahydro-1H-cyclopropa[3,4]cyclopenta[1,2-c]pyrazol-1-yl)acetamide]
CC50 at 4 day [1]: > 200 nM | EC50 (recombinant NL4-3 virus): 0.078 nM

Cn1nc(NS(C)(=O)=O)c2c(Cl)ccc(-n3c([C@H](Cc4cc(F)cc(F)c4)NC(=O)Cn4nc(C(F)F)c5c4C(F)(F)[C@@H]4C[C@H]54)nc4nc(OCc5nc(C(F)(F)F)cs5)ccc4c3=O)c21 (atropisomer, axis not shown; (P)) [Example 23, N-((S)-1-((3P)-3-(4-chloro-1-methyl-3-(methylsulfonamido)-1H-indazol-7-yl)-4-oxo-7-((4-(trifluoromethyl)thiazol-2-yl)methoxy)-3,4-dihydropyrido[2,3-d]pyrimidin-2-yl)-2-(3,5-difluorophenyl)ethyl)-2-((3bS,4aR)-3-(difluoromethyl)-5,5-difluoro-3b,4,4a,5-tetrahydro-1H-cyclopropa[3,4]cyclopenta[1,2-c]pyrazol-1-yl)acetamide]
CC50 at 4 day [1]: > 100 nM | EC50 (recombinant NL4-3 virus): 0.1 nM

Cn1nc(NS(C)(=O)=O)c2c(Cl)ccc(-n3c([C@H](Cc4cc(F)cc(F)c4)NC(=O)Cn4nc(C5CC5)c5c4C(F)(F)[C@@H]4C[C@H]54)nc4nc(OCC(F)(F)C(F)(F)F)ccc4c3=O)c21 (atropisomer, axis not shown; (P)) [Example 41, N-((S)-1-((3P, 3P)-3-(4-chloro-1-methyl-3-(methylsulfonamido)-1H-indazol-7-yl)-4-oxo-7-(2,2,3,3,3-pentafluoropropoxy)-3,4-dihydropyrido[2,3-d]pyrimidin-2-yl)-2-(3,5-difluorophenyl)ethyl)-2-((3bS,4aR)-3-cyclopropyl-5,5-difluoro-3b,4,4a,5-tetrahydro-1H-cyclopropa[3,4]cyclopenta[1,2-c]pyrazol-1-yl)acetamide]
CC50 at 4 day [1]: > 100 nM | EC50 (recombinant NL4-3 virus): 0.043 nM

Cn1nc(NS(C)(=O)=O)c2c(Cl)ccc(-n3c([C@H](Cc4cc(F)cc(F)c4)NC(=O)Cn4nc(C(F)F)c5c4C(F)(F)[C@@H]4C[C@H]54)nc4nc(OCCOCC(F)(F)F)ccc4c3=O)c21 (atropisomer, axis not shown; (P)) [Example 26, N-((S)-1-((3P)-3-(4-chloro-1-methyl-3-(methylsulfonamido)-1H-indazol-7-yl)-4-oxo-7-(2-(2,2,2-trifluoroethoxy)ethoxy)-3,4-dihydropyrido[2,3-d]pyrimidin-2-yl)-2-(3,5-difluorophenyl)ethyl)-2-((3bS,4aR)-3-(difluoromethyl)-5,5-difluoro-3b,4,4a,5-tetrahydro-1H-cyclopropa[3,4]cyclopenta[1,2-c]pyrazol-1-yl)acetamide]
CC50 at 4 day [1]: > 100 nM | EC50 (recombinant NL4-3 virus): 0.024 nM

Cn1nc(COc2ccc3c(=O)n(-c4ccc(Cl)c5c(NS(C)(=O)=O)nn(C)c45)c([C@H](Cc4cc(F)cc(F)c4)NC(=O)Cn4nc(C(F)F)c5c4C(F)(F)[C@@H]4C[C@H]54)nc3n2)cc1C(F)(F)F (atropisomer, axis not shown; (P)) [Example 13, N-((S)-1-((3P)-3-(4-chloro-1-methyl-3-(methylsulfonamido)-1H-indazol-7-yl)-7-((1-methyl-5-(trifluoromethyl)-1H-pyrazol-3-yl)methoxy)-4-oxo-3,4-dihydropyrido[2,3-d]pyrimidin-2-yl)-2-(3,5-difluorophenyl)ethyl)-2-((3bS,4aR)-3-(difluoromethyl)-5,5-difluoro-3b,4,4a,5-tetrahydro-1H-cyclopropa[3,4]cyclopenta[1,2-c]pyrazol-1-yl)acetamide]
CC50 at 4 day [1]: > 100 nM | EC50 (recombinant NL4-3 virus): 0.058 nM
